In brackets after ≈: the same amount, converted by molar mass.
Key:
[1] = tested on: Staphylococcus aureus; test: Antibacterial activity against Staphylococcus aureus Smith ATCC 13709 by CLSI microdilution method; format: functional
[2] = tested on: Staphylococcus aureus; test: Antibacterial activity against Staphylococcus aureus Smith ATCC 13709 in presence of 20% mouse serum by CLSI microdilution method; format: functional
[3] = tested on: Enterococcus faecalis; test: Antibacterial activity against Enterococcus faecalis ATCC 29212 by CLSI microdilution method; format: functional
[4] = tested on: Haemophilus influenzae; test: Antibacterial activity against ampicillin-resistant Haemophilus influenzae ATCC 49247 by CLSI microdilution method; format: functional
[5] = tested on: Escherichia coli; test: Antibacterial activity against Escherichia coli ATCC 35218 by CLSI microdilution method; format: functional
[6] = Inhibition of Haemophilus influenzae DHFR assessed as oxidation of NADPH using dihydrofolate as substrate pre-incubated for 10 mins before substrate addition by spectrophotometry
[7] = molecular target: Dihydrofolate reductase (Staphylococcus aureus, UniProt P0A017); test: Inhibition of Staphylococcus aureus DHFR assessed as oxidation of NADPH using dihydrofolate as substrate pre-incubated for 10 mins before substrate addition by spectrophotometry
[8] = molecular target: T1, Dihydrofolate reductase (Homo sapiens, UniProt P00374); test: Inhibition of human DHFR assessed as oxidation of NADPH using dihydrofolate as substrate pre-incubated for 10 mins before substrate addition by spectrophotometry
T1 sequence (P00374 whole entry): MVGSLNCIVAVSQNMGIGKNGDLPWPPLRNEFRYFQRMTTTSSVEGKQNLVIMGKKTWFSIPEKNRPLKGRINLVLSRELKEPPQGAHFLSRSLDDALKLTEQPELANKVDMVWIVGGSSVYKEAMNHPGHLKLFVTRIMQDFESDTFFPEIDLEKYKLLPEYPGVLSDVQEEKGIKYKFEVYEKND

[9] = tested on: Staphylococcus aureus; test: Antibacterial activity against TMP-resistant Staphylococcus aureus harboring DHFR F99Y mutant by CLSI microdilution method; format: functional
[10] = molecular target: Dihydrofolate reductase (Staphylococcus aureus, UniProt P0A017, F99Y); test: Inhibition of TMP-resistant Staphylococcus aureus DHFR F99Y mutant assessed as oxidation of NADPH using dihydrofolate as substrate pre-incubated for 10 mins before substrate addition by spectrophotometry

SMILES	MIC [1]	MIC [2]	MIC [3]	MIC [4]	MIC [5]	Ki [6]	Ki [7]	Ki [8]	MIC [9]	Ki [10]
Nc1ccc(-c2ccc3c(N)nc(N)nc3c2)cc1	4 µg/mL (≈ 15.9 µM)	2 µg/mL	8 µg/mL (≈ 31.8 µM)	4 µg/mL (≈ 15.9 µM)	32 µg/mL (≈ 127 µM)	0.16 nM	–	–	–	–
CCOc1ccccc1-c1ccc2c(N)nc(N)nc2c1	4 µg/mL (≈ 14.3 µM)	8 µg/mL	4 µg/mL (≈ 14.3 µM)	16 µg/mL (≈ 57.1 µM)	32 µg/mL (≈ 114 µM)	0.27 nM	3.1 nM	85 nM	–	–
COc1ccc(-c2cc3nc(N)nc(N)c3cc2C)cc1OC	0.5 µg/mL (≈ 1.61 µM)	0.5 µg/mL	0.5 µg/mL (≈ 1.61 µM)	4 µg/mL (≈ 12.9 µM)	8 µg/mL (≈ 25.8 µM)	0.0018 nM	0.35 nM	12.2 nM	–	–
CCOc1ccc(Cl)cc1-c1cc2nc(N)nc(N)c2cc1C	1 µg/mL (≈ 3.04 µM)	2 µg/mL	0.5 µg/mL (≈ 1.52 µM)	8 µg/mL (≈ 24.3 µM)	8 µg/mL (≈ 24.3 µM)	0.023 nM	0.38 nM	11.1 nM	–	–
COc1cc(Cc2cnc(N)nc2N)cc(OC)c1OC [TRIMETHOPRIM]	1 µg/mL (≈ 3.44 µM)	1 µg/mL	0.5 µg/mL (≈ 1.72 µM)	0.5 µg/mL (≈ 1.72 µM)	1 µg/mL (≈ 3.44 µM)	0.19 nM	–	–	32 µg/mL (≈ 110 µM)	–
COc1cc(Cc2cnc(N)nc2N)c2c(c1OC)OC(C1CC1)C=C2 (configuration not stated)	0.13 µg/mL (≈ 0.367 µM)	0.13 µg/mL	0.03 µg/mL (≈ 0.0846 µM)	1 µg/mL (≈ 2.82 µM)	4 µg/mL (≈ 11.3 µM)	0.007 nM	–	–	2 µg/mL (≈ 5.64 µM)	–
CC(=O)c1cccc(-c2cc3nc(N)nc(N)c3cc2C)c1	0.5 µg/mL (≈ 1.71 µM)	1 µg/mL	0.5 µg/mL (≈ 1.71 µM)	1 µg/mL (≈ 3.42 µM)	4 µg/mL (≈ 13.7 µM)	0.006 nM	–	–	–	–
CC(=O)c1cccc(-c2ccc3c(N)nc(N)nc3c2)c1	4 µg/mL (≈ 14.4 µM)	8 µg/mL	4 µg/mL (≈ 14.4 µM)	64 µg/mL (≈ 230 µM)	32 µg/mL (≈ 115 µM)	0.31 nM	–	–	–	–
Cc1cc2c(N)nc(N)nc2cc1-c1ccccc1	1 µg/mL (≈ 4 µM)	2 µg/mL	0.5 µg/mL (≈ 2 µM)	2 µg/mL (≈ 7.99 µM)	8 µg/mL (≈ 32 µM)	0.0073 nM	1.6 nM	129 nM	–	–
Nc1nc(N)c2ccc(-c3ccccc3)cc2n1	8 µg/mL (≈ 33.9 µM)	64 µg/mL	8 µg/mL (≈ 33.9 µM)	16 µg/mL (≈ 67.7 µM)	16 µg/mL (≈ 67.7 µM)	0.52 nM	9.1 nM	743 nM	–	–
CCOc1ccc(-c2cccnc2)cc1-c1ccc2c(N)nc(N)nc2c1	0.5 µg/mL (≈ 1.4 µM)	8 µg/mL	0.5 µg/mL (≈ 1.4 µM)	16 µg/mL (≈ 44.8 µM)	> 16 µg/mL	0.011 nM	0.3 nM	10.1 nM	–	–
CCOc1ccc(Br)cc1-c1cc2nc(N)nc(N)c2cc1C	1 µg/mL (≈ 2.68 µM)	8 µg/mL	0.5 µg/mL (≈ 1.34 µM)	32 µg/mL (≈ 85.7 µM)	32 µg/mL (≈ 85.7 µM)	0.044 nM	0.76 nM	11.1 nM	–	–
CCOc1ccc2ccccc2c1-c1cc2nc(N)nc(N)c2cc1C	0.125 µg/mL (≈ 0.363 µM)	0.5 µg/mL	0.5 µg/mL (≈ 1.45 µM)	16 µg/mL (≈ 46.5 µM)	16 µg/mL (≈ 46.5 µM)	0.015 nM	–	–	1 µg/mL (≈ 2.9 µM)	2.4 nM
CCOc1ccc(-c2cccc(NS(C)(=O)=O)c2)cc1-c1ccc2c(N)nc(N)nc2c1	0.5 µg/mL (≈ 1.11 µM)	2 µg/mL	0.5 µg/mL (≈ 1.11 µM)	8 µg/mL (≈ 17.8 µM)	64 µg/mL (≈ 142 µM)	0.0049 nM	–	–	–	–
Cc1cc2c(N)nc(N)nc2cc1-c1ccccc1C(C)C	0.25 µg/mL (≈ 0.855 µM)	1 µg/mL	0.5 µg/mL (≈ 1.71 µM)	8 µg/mL (≈ 27.4 µM)	16 µg/mL (≈ 54.7 µM)	0.037 nM	0.13 nM	20.9 nM	–	–
CCOc1ccc(C)cc1-c1cc2nc(N)nc(N)c2cc1C	1 µg/mL (≈ 3.24 µM)	4 µg/mL	0.5 µg/mL (≈ 1.62 µM)	16 µg/mL (≈ 51.9 µM)	16 µg/mL (≈ 51.9 µM)	0.034 nM	0.85 nM	22.2 nM	–	–
CCOc1ccc(C=O)cc1-c1cc2nc(N)nc(N)c2cc1C	1 µg/mL (≈ 3.1 µM)	1 µg/mL	0.5 µg/mL (≈ 1.55 µM)	2 µg/mL (≈ 6.2 µM)	16 µg/mL (≈ 49.6 µM)	0.22 nM	0.24 nM	12 nM	–	–
CS(=O)(=O)c1ccc(-c2ccc3c(N)nc(N)nc3c2)cc1	8 µg/mL (≈ 25.4 µM)	8 µg/mL	16 µg/mL (≈ 50.9 µM)	16 µg/mL (≈ 50.9 µM)	> 64 µg/mL	0.22 nM	5 nM	253 nM	–	–
CCc1ccccc1-c1cc2nc(N)nc(N)c2cc1C	0.25 µg/mL (≈ 0.898 µM)	0.5 µg/mL	0.25 µg/mL (≈ 0.898 µM)	8 µg/mL (≈ 28.7 µM)	8 µg/mL (≈ 28.7 µM)	0.032 nM	0.19 nM	41.1 nM	–	–
Cc1cc2c(N)nc(N)nc2cc1-c1ccc(S(C)(=O)=O)cc1	2 µg/mL (≈ 6.09 µM)	1 µg/mL	1 µg/mL (≈ 3.05 µM)	8 µg/mL (≈ 24.4 µM)	32 µg/mL (≈ 97.4 µM)	0.0023 nM	1.2 nM	44.1 nM	–	–
CCOc1ccc2[nH]ccc2c1-c1cc2nc(N)nc(N)c2cc1C	0.25 µg/mL (≈ 0.75 µM)	1 µg/mL	0.25 µg/mL (≈ 0.75 µM)	16 µg/mL (≈ 48 µM)	8 µg/mL (≈ 24 µM)	0.082 nM	0.61 nM	245 nM	–	–
COc1ccc(OC)c(-c2cc3nc(N)nc(N)c3cc2C)c1	1 µg/mL (≈ 3.22 µM)	1 µg/mL	4 µg/mL (≈ 12.9 µM)	8 µg/mL (≈ 25.8 µM)	16 µg/mL (≈ 51.6 µM)	0.014 nM	–	–	–	–
Cc1ccccc1-c1cc2nc(N)nc(N)c2cc1C	0.5 µg/mL (≈ 1.89 µM)	2 µg/mL	0.5 µg/mL (≈ 1.89 µM)	4 µg/mL (≈ 15.1 µM)	8 µg/mL (≈ 30.3 µM)	0.037 nM	0.77 nM	95.6 nM	–	–
CCOc1ccc(C(=O)N(CC)CC)cc1-c1cc2nc(N)nc(N)c2cc1C	0.5 µg/mL (≈ 1.27 µM)	0.5 µg/mL	0.5 µg/mL (≈ 1.27 µM)	64 µg/mL (≈ 163 µM)	64 µg/mL (≈ 163 µM)	0.013 nM	–	–	8 µg/mL (≈ 20.3 µM)	6 nM
COc1ccccc1-c1ccc2c(N)nc(N)nc2c1	2 µg/mL (≈ 7.51 µM)	4 µg/mL	4 µg/mL (≈ 15 µM)	16 µg/mL (≈ 60.1 µM)	32 µg/mL (≈ 120 µM)	0.21 nM	–	–	–	–
Cc1cc2c(N)nc(N)nc2cc1-c1ccc(N)cc1	1 µg/mL (≈ 3.77 µM)	1 µg/mL	0.5 µg/mL (≈ 1.88 µM)	2 µg/mL (≈ 7.54 µM)	8 µg/mL (≈ 30.2 µM)	0.0018 nM	–	–	–	–

Source: ChEMBL document CHEMBL1817628, “Structure-based design of new DHFR-based antibacterial agents: 7-aryl-2,4-diaminoquinazolines” (Bioorg Med Chem Lett, 2011)
